According to US6350739B1, “Methods of prevention and treatment of ischemic damage” (University of Florida Resarch Foundation, Inc., priority 1999, dated 2002):
Entries after “also recorded” stand apart in the source; their conditions may differ. Marks after values point to notes of the source that are not given here.

Legend:
[1] = system: ischemia induced by middle cerebral artery occlusion (MCAO); test: Pretreatment with estrogen compound before middle cerebral artery occlusion (MCAO) in ovariectomized rats; type: in vivo, rat; design: % Survival: concentration or dose not given beside the values
Experimental: Rats were used as experimental models to test the effects of estrogen compounds in protecting against ischemic damage. To remove the naturally occurring source of estrogen, ovariectomies were performed prior to induction of ischemia.
Subsequent to the ovariectomy, rats were treated with an estrogen compound either by subcutaneous delivery with Silastic® tubes 24 hours prior to the MCA occlusion or by intravenous delivery as follows:
Subcutaneous sustained delivery: 17β- or 17α-estradiol was packed into 5 mm long Silastic® tubes (Dow-Corning, Midland, Mich.) according to the method of Mohammed et al. 1985 Ann. Neurol 18, 705-711. Sham (empty) tubes were similarly prepared as estrogen negative controls. […]
The control was administered HPCD only. The chemical delivery system is formulated so that the estrogen is slowly released from the carrier.
At 7 to 8 days after ovariectomy, a method for occluding the […] was applied to the rat using modifications of the methods of Longa et al. (1989) Stroke, vol. 20, 84-91; and Nagasawa et al. (1989) Stroke, vol.20, 1037-1043, with certain modifications, as described herein.
Animals were anesthetized by ip injection with ketamine (60 mg/kg) and xylazine (10 mg/kg). Rectal temperature was monitored and maintained between 36.5 and 37.0 C with a heat lamp throughout the entire procedure. The left carotid artery was exposed through a midline cervical incision. The left sternohyloid, sternomastoid, digastric (posterior belly) and the omohyloid muscles were divided and retracted. Part of the greater horn of the hyloid bone was cut to facilitate exposure of the distal external carotid artery (ECA). The common carotid artery (CCA), ECA, and internal carotid artery (ICA) were dissected away from adjacent nerves. The distal ECA and its branches, the CCA, and the pterygopalatine arteries were coagulated completely. A microvascular clip was placed on the ICA near skull base. A 2.5 cm length of 3-0 monofilament nylon suture was heated to create a globule for easy movement and blocking of the lumen of the vessel. This was introduced into the ECA lumen through the puncture. The suture was gently advanced to the distal ICA until it reached the clipped position. The microvascular clip was then removed and the suture was inserted until resistance was felt. The distance between the CCA bifurcation and the resistive point was about 1.8 cm. This operative procedure was completed within 10 minutes without bleeding. After the prescribed occlusion tine (40 minutes), the suture was withdrawn from the ICA and the distal ICA was immediately cauterized.
Animals that survived until the scheduled sacrifice time were sacrificed by decapitation. Scheduled post-ischemic sacrifices occurred at 6 hours, 24 hours and 1 week post MCAO (Table 1). For the 6-hour sample, animals were monitored continuously. […] Similarly, animals scheduled for the 1 week post-ischemic sacrifice were monitored for the first 4 hours after surgery and then daily thereafter.
The brains were isolated from the decapitated heads, sliced into 3 or 5 coronal tissue slices as described below and then stained with hematoxylin and eosin to determine the extent of the ischemic area Stained slices were photographed and subsequently imaged using a Macintosh Cadre 800 computer, equipped with an Image 1.47 software program for the assessment of the cross-sectional area of the ischemic lesion. These images and the calculated area of ischemic damage were stored in the program for later retrieval and data reduction. The significance of differences in mortality among the different treatment groups was determined using Chi-Square analysis.
Ovariectomized rats were treated with 5 mm Silastic® tubes containing 17α-estradiol at 24 hours prior to MCAO. At 24 hours after the MCAO, the animals were sacrificed and the brains extracted.

[2] = system: middle cerebral artery (MCA) occlusion; test: Pretreatment with ent-17β-estradiol or 17β-estradiol sc in oil before MCA occlusion; type: in vivo, Sprague-Dawley female rats; details: for infarct area (mean±SEM): 100 μg/kg sc in oil 2 hours prior to 60 minute MCA occlusion, 24 hours reperfusion, vehicle 13.3±2.0
Experimental: Sprague-Dawley female rats ([…] body weight) were purchased from Charles River Laboratories, Inc. (Wilmington, Mass.). They were housed in pairs in hanging, stainless steel cage in a temperature controlled room (25° C.) with daily light cycle (light on 0700 to 1900 h daily) for a minimum of 3 days before surgery. All rats had free access to Purina Rat Chow and tap water. All procedures performed on animals were reviewed and approved by the Institutional Animal Care and Use Committee of the University of Florida before initiation of the study. Animals were ovariectomized at 1 week prior to middle cerebral artery (MCA) occlusion.
MCAO was achieved according to the methods described previously by us. Briefly, following administration of anesthetics of ketamine (60 mg/kg, ip) and xylazine (10 mg/kg, ip), the common carotid artery […] on the left side were exposed through a midline cervical incision and then gently dissected away from adjacent nerves. A 3-0 monofilament nylon suture was introduced into the left […] and gently advanced to the distal ICA until resistance was felt where the suture passed the bifurcation of the MCA and anterior cerebral artery (ACA). The thread was left in place for 60 minutes after which time re-perfusion was initiated. Rectal temperature was monitored and maintained between 36.5 and 37.0° C. during the entire stroke procedure. Each group of animals was decapitated after 24 hours of reperfusion. The brain was removed and placed in a metallic brain matrix for tissue slicing immediately after sacrifice. Five slices were made at […] posterior to the olfactory bulb. The slices were incubated for 30 minutes in a 2% solution of 2,3,5-triphenyltetrazolium chloride (ITC) in physiological saline at 37° C. and then were fixed in 10% formalin. The stained slices were photographed and subsequently measured for the surface area of the slices and the ischemic lesion area. Ischemic lesion volume was calculated as by the sums of the areas of ischemic lesion across the five slices divided by the total cross sectional area of these five brain slices.

[3] = system: ischemia induced by middle cerebral artery occlusion (MCAO); test: Post-treatment with E2-CDS after onset of MCAO in ovariectomized rats; type: in vivo, rat
Experimental: At 7 to 8 days after ovariectomy, a method for occluding the middle carotid artery was applied to the rat using modifications of the methods of Longa et al. (1989) Stroke, vol.
Animals were anesthetized by ip injection with ketamine (60 mg/kg) and xylazine (10 mg/kg). Rectal temperature was monitored and maintained between 36.5 and 37.0 C with a heat lamp throughout the entire procedure. The left carotid artery was exposed through a midline cervical incision. The left sternohyloid, sternomastoid, digastric (posterior belly) and the omohyloid muscles were divided and retracted. Part of the greater horn of the hyloid bone was cut to facilitate exposure of the distal external carotid artery (ECA). The common carotid artery (CCA), ECA, and internal carotid artery (ICA) were dissected away from adjacent nerves. The distal ECA and its branches, the CCA, and the pterygopalatine arteries were coagulated completely. A microvascular clip was placed on the ICA near skull base. A 2.5 cm length of 3-0 monofilament nylon suture was heated to create a globule for easy movement and blocking of the lumen of the vessel. This was introduced into the ECA lumen through the puncture. The suture was gently advanced to the distal ICA until it reached the clipped position. The microvascular clip was then removed and the suture was inserted until resistance was felt. […]

[4] = system: primary rat brain capillary endothelial cells (BCEC); test: Brain capillary endothelial cell mortality under hypoglycemia (Trypan blue); type: cell-based; details: 2 nM
Experimental: Neurochemistry vol. 25, 715-717, 1975, incorporated herein by reference. […] The glucose concentration of the culture media was then adjusted from 20 mg % to 200 mg % by adding appropriate amount of D-(+)-glucose to the glucose-free media and monitored by Glucose and L-Lactate Analyzer (YSI model 2300 STAT plus, YSI, Inc., Yellow Springs, Ohio). The hypoglycemic cultures were maintained for 24 hours or 48 hours prior to staining with Trypan blue. Cell mortality was counted using Trypan blue staining method. Cell death percentage was calculated as dead cell/alive cell×100%. Statistical methods used included two-way analysis of variance, applied to determine the significance of the difference among the experimental groups. Kruskal-Wallis nonparametric analysis was used for data presented as percentage. […] P<0.05 was considered significant.

[5] = system: primary rat brain capillary endothelial cells (BCEC); test: Brain capillary endothelial cell mortality under anoxia (Trypan blue); type: cell-based; details: 2 nM, 200 mg % glucose
Experimental: (§1) Primary rat brain capillary endothelial cells (BCEC) cultures were prepared following the method of Goldstein, J. Neurochemistry vol.
(§2) Nitrogen gas was influxed to replace the oxygen inside the chamber. The chamber was sealed and placed in the incubator for four hours for nonhypoglycemic cultures and 2 hours for hypoglycemic cultures.

[6] = system: primary rat brain capillary endothelial cells (BCEC); test: Brain capillary endothelial cell mortality under combined anoxia and hypoglycemia; type: cell-based; details: 2 nM; 100 mg % glucose and 2 hours anoxia
Experimental: as §1, §2

[7] = system: ischemia induced by middle cerebral artery occlusion (MCAO); test: Post-treatment at 0.5, 1, 2, 3 and 4 hours after MCAO, ischemic lesion volume; type: in vivo, rat; details: iv 100 μg/kg HPCD-complexed plus Silastic pellet at 0.5, 1, 2, or 3 hours post-occlusion; 48 hours after MCAO
Experimental: Ovariectomized, non-treated animals (OVX) and non-ovariectomized, non-treated animals (INT) were used as controls (n=12 and n=6, respectively). At 48 hours following MCAO, animals were sacrificed and ischemic lesion volume was determined by obtaining brain sections as previously described and staining with TTC.

[8] = 5 mm Silastic tube 24 hours prior to MCAO, sacrifice 24 hours after MCAO, vs sham
[9] = Total of all planned sacrifice times
[10] = planned sacrifice 1 Day after MCAO
[11] = planned sacrifice 1 Week after MCAO
[12] = planned sacrifice 6 hrs after MCAO

Compound: C[C@]12CC[C@@H]3c4ccc(O)cc4CC[C@H]3[C@@H]1CC[C@H]2O [17α-estradiol]
- reduction of ischemic area, slice C [1, 8]: 55%
- reduction of ischemic area, slice D [1, 8]: 66%
- reduction of ischemic area, slice E [1, 8]: 81%
- protective effect in tissue slices A-E (FIG. 3) ([1]; sustained subcutaneous delivery initiated 24 hours prior to ischemic event): significant protective effect

Compound: C[C@@]12CC[C@H]3c4ccc(O)cc4CC[C@@H]3[C@H]1CC[C@H]2O [ent-17β-estradiol, (8α,9β,13α,14β,17α)-estra-1,3,5(10)-triene-3,17-diol]
- effectiveness in reducing percent lesion volume compared with 17β-estradiol ([2]; 100 μg/kg sc in oil): as effective in reducing the percent lesion volume as 17β-estradiol; also recorded: as effective a therapeutic agent as 17β-estradiol
- infarct area (mean±SEM) [2]: 5.3±1.7

Compound: C[C@]12CC[C@@H]3c4ccc(O)cc4CC[C@H]3[C@@H]1CC[C@@H]2O [17β-estradiol]
- reduction of ischemic lesion size of the whole coronal section, region C ([1]; 10 μg/kg sc injection two hours prior to MCAO, sacrifice at 24 hours, 9 mm caudal to olfactory bulb): 46.3%
- reduction of ischemic lesion size of the whole coronal section, region D ([1]; 10 μg/kg sc injection two hours prior to MCAO, sacrifice at 24 hours, 11 mm caudal to olfactory bulb): 44.1%
- Number of Animals Alive [1, 9]: 14
- Number of Animals Dead [1, 9]: 4
- % Survival ([1]; Total of all planned sacrifice times, pretreatment 24 hours prior to MCAO): 78%
- % Survival ([1]; Total of all planned sacrifice times, pretreatment 24 hours prior to MCAO, listed as E2 Implant): 78* %
- Number of Animals Alive [1, 10]: 8
- Number of Animals Dead [1, 10]: 0
- % Survival ([1]; planned sacrifice 1 Day after MCAO, pretreatment 24 hours prior to MCAO): 100* %
- Number of Animals Alive [1, 11]: 3
- Number of Animals Dead [1, 11]: 1
- % Survival ([1]; planned sacrifice 1 Week after MCAO, pretreatment 24 hours prior to MCAO): 75* %
- Number of Animals Alive [1, 12]: 3
- Number of Animals Dead [1, 12]: 3
- % Survival ([1]; planned sacrifice 6 hrs after MCAO, pretreatment 24 hours prior to MCAO): 50%
- ischemic lesion, percent of cross-sectional area of brain sections ([1]; pretreatment 24 hours prior to MCAO, 3 brain slices, sacrifice 1 day or 1 week, sham 25.6±5.7%): 9.8±4.0%
- mortality ([1]; pretreatment of ovariectomized rats before MCAO, untreated 65%): 22%
- protective effect in tissue slices A-D (FIG. 2) ([1]; subcutaneous injection two hours prior to ischemic event): significant protective effect
- reduction of ischemic area ([3]; administered 40 minutes after MCAO, range over slices): 45-90%
- reduction of ischemic area (area under the ischemic curve) ([3]; administered 90 minutes after MCAO): 31%
- cell loss saved vs control ([4]; medium glucose 20 mg %): 23. %
- cell loss saved vs control ([4]; medium glucose 40 mg %): 28.4%
- cell loss saved vs control ([4]; medium glucose 100 mg %): 35.9%
- difference in percent cell death with and without estrogen ([4]; normal glucose 200 mg %): Little difference
- reduction of cell death ([5]; 1 hour anoxic insult): 28.4%
- reduction of cell death ([5]; 4 hour anoxic insult): 18.4%
- protection of BCEC from cumulative effect of hypoglycemia and anoxia [6]: effective in protecting cultured BCEC
- protection, ischemic lesion volume [7]: significant protection
- infarct area (mean±SEM) [2]: 5.3±1.6
- reduction of infarct ([2]; 100 μg/kg sc in oil 2 hours prior to MCA occlusion, vs vehicle): 60%
